Paper PMC11724075, “Small-molecule-induced ERBB4 activation to treat heart failure” (Nature Communications, 2025)
“And” between values parts separate entries of the source, which are not always exact repeats. Equal entries are not always repeated.

Columns and labels:
iAMs = test: H2O2-induced cell death assay in iAMs (Toxilight), also with LY294002
Procedure: Subsequently, H2O2 (100 µM; Merck, H1009) was added and the cells were incubated for 4 h at 37 °C. All wells contained DMSO at a final concentration of 0.9%. […] After incubation at RT for 5 min, luminescence was measured using the Luminoskan Ascent.

ERBB4/ERBB4 = target: T1, ERBB4/ERBB4 (Homo sapiens, UniProt Q15303); test: PathHunter U2OS ERBB4/ERBB4 dimerization assay, 96-well dose-response; type: cell-based; settings: for ERBB4/ERBB4 dimerization signal: relative to signal with 0.1 µM NRG1, single biological replicates; for EC50: Fig. 1 panels b, f-l
T1 construct: host or cells: U2OS (osteosarcoma cells), PathHunter engineered line
Procedure: PathHunter U2OS ERBB4/ERBB4 (osteosarcoma cells; Eurofins, 93-0961C3), U2OS ERBB2/ERBB4 (osteosarcoma cells; Eurofins, 493-0960C3), ERBB2/ERBB3 (osteosarcoma cells; Eurofins, 93-1042C3) and ERBB1/ERBB1 (osteosarcoma cells; Eurofins, 93-0989C3) dimerization cell lines were cultured according to the manufacturer’s instructions. Briefly, cells were cultured in Cell Culture Reagent 103 (Eurofins, 92-3103 G) supplemented with 250 µg/mL Hygromycin B (Eurofins, 92-0029) and 500 µg/mL G418 (Eurofins, 92-0030), and were maintained at 37 °C in humidified atmosphere of 5% CO2. HCFs (Innoprot, P10454) were cultured in fibroblast medium (Innoprot, P60108) supplemented with 10% (v/v) fetal bovine serum (FBS, Innoprot), 10% (v/v) fibroblast growth supplement (Innoprot), and 1% (v/v) penicillin/streptomycin solution (Innoprot). iAMs[33] (kindly provided by LUMC) were cultured in Advanced DMEM F-12 (Thermo Fisher Scientific, 12634028) supplemented with 2% (v/v) heat-inactivated FBS (Thermo Fisher Scientific, 10270106), 1% (v/v) penicillin/streptomycin (10,000 units/mL and 10 mg/mL respectively, Thermo Fisher Scientific, 15140122), 1× GlutaMAX (Thermo Fisher Scientific, 35050061), and 100 ng/mL doxycycline (Tocris, 4090) for proliferation. To induce differentiation, iAMs were transferred to medium without doxycycline.
U2OS ERBB4/ERBB4 dimerization cells were seeded at a density of 5 × 10^4 cells/well in 100 µL Cell Plating 0 Reagent, in white 96-well plates (PerkinElmer, 6005680) and incubated for 24 h at 37 °C, 5% CO2. […] Next, 110 µL PathHunter Flash Detection Reagent was added to each well and incubated at RT for 1 h after which the luminescence signal was measured using the Luminoskan Ascent (Thermo Fisher Scientific). […] The same experimental set-up was used for the U2OS ERBB2/ERBB4, U2OS ERBB2/ERBB3 and U2OS ERBB1/ERBB1 dimerization cell lines.
Category Parameter Description
Assay Type of assay PathHunter Dimerization assays provide a robust, highly sensitive and easy-to-use cell-based functional assay to study various protein activities in a cell. The assay s use
Enzyme Fragment Complementation technology, where the b-galactosidase (b-gal) enzyme is split into two fragments, ProLink and Enzyme Acceptor. Independently these fragments have no b-gal activity. However, when forced to complement through protein-protein interactions, they form an active b-gal enzyme. The PathHunter Dimerization assay detects ligand induced dimerization of two subunits of a receptor-dimer pair. The cells have been engineered to co-express one receptor subunit (ERBB4) fused to Enzyme
Donor, and a second dimer partner (ERBB4) fused to Enzyme Acceptor. Binding of an agonist to one receptor subunit induces it to interact with its dimer partner, forcing complementation of the two enzyme […]
functional enzyme that hydrolyzes a substrate to generate a chemiluminescent signal.
Target ErbB4 receptor (RTK receptor)
Primary measurement Detection of chemiluminescent signal, induced by small-molecule ErbB4 agonists
Key reagents PathHunter Dimerization ErbB4/ErbB4 Cell
Line (93-0961C3) - PathHunter Flash
Detection Kit (03 -0247) - AssayComplete Cell
AssayComplete Cell Detachment Reagent
(92-0009) - AssayComplete Thawing Reagent
T3 (92-4103TR) - AssayComplete Freezing
Assay protocol https://www.discoverx.com/catalog/pathhun

T1 sequence (Q15303 26-1308): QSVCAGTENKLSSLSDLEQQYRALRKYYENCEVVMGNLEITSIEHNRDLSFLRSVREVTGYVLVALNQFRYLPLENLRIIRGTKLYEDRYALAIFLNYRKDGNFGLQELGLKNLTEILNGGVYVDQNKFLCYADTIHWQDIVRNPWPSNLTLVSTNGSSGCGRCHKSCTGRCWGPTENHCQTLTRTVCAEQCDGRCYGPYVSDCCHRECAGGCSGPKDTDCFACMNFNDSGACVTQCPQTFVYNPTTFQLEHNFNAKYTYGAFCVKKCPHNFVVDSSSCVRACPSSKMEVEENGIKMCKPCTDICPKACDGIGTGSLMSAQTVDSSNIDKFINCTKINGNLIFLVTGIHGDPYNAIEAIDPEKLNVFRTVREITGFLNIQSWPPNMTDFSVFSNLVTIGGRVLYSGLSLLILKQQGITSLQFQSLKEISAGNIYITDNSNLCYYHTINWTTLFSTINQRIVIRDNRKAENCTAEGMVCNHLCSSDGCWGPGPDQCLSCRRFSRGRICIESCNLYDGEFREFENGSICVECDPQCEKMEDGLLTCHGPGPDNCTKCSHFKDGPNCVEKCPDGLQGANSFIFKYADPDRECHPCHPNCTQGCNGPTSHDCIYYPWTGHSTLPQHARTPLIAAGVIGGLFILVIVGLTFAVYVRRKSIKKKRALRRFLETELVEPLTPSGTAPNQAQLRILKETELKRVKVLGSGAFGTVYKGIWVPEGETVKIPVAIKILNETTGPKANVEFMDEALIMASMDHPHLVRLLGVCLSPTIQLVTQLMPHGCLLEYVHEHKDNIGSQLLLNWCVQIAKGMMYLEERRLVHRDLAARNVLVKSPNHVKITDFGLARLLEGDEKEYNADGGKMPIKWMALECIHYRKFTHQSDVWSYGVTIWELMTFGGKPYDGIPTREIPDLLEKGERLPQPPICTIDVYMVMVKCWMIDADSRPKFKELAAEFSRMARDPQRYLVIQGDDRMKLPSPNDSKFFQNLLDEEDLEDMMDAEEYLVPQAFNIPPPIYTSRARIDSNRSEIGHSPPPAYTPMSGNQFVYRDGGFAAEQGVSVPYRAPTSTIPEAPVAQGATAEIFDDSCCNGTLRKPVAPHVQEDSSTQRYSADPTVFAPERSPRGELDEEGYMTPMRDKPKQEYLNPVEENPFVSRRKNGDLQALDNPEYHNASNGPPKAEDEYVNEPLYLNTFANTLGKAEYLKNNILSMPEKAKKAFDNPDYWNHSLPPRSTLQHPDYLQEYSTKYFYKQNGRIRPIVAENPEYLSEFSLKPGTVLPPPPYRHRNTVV
T1 sequence (Q15303 26-1308): as above

| Structure (SMILES) | total cell death of iAMs (iAMs; 100 µM H2O2) [%] | total cell death of iAMs, validation H2O2 (iAMs; H2O2 vs Vehicle, single replicates) | ERBB4/ERBB4 dimerization signal (ERBB4/ERBB4; 3.125e-8 M) | ERBB4/ERBB4 dimerization signal (ERBB4/ERBB4; 6.25e-8 M) | ERBB4/ERBB4 dimerization signal (ERBB4/ERBB4; 1.25e-7 M) | ERBB4/ERBB4 dimerization signal (ERBB4/ERBB4; 2.5e-7 M) | ERBB4/ERBB4 dimerization signal (ERBB4/ERBB4; 5e-7 M) | ERBB4/ERBB4 dimerization signal (ERBB4/ERBB4; 1e-6 M) | ERBB4/ERBB4 dimerization signal (ERBB4/ERBB4; 2e-6 M) | ERBB4/ERBB4 dimerization signal (ERBB4/ERBB4; 4e-6 M) | ERBB4/ERBB4 dimerization signal (ERBB4/ERBB4; 8e-6 M) | ERBB4/ERBB4 dimerization signal (ERBB4/ERBB4; 1.6e-5 M) | ERBB4/ERBB4 dimerization signal (ERBB4/ERBB4; 3.2e-5 M) | EC50 (ERBB4/ERBB4) [µM] | induction of ERBB4 dimerization (in words) (ERBB4/ERBB4) | total cell death of iAMs (iAMs; H2O2/Veh + LY294002 (20 µM), single replicates) | total cell death of iAMs (iAMs; Veh + LY294002 (20 µM), no H2O2, single replicates) | effect of LY294002 pretreatment on pro-survival effect of EF-1 (in words) (iAMs; iAMs treated with H2O2) |
| --- | --- | --- | --- | --- | --- | --- | --- | --- | --- | --- | --- | --- | --- | --- | --- | --- | --- | --- |
| OO [Compound H2O2, hydrogen peroxide, reference compound] | 62 | 48.19 and 54.13 and 68.52 and 60.96 and 64.53 and 71.34 and 65.79 and 69.72 and 69.16 and 66.75 and 64.62 and 50.66 and 53.52 and 64.15 | – | – | – | – | – | – | – | – | – | – | – | – | – | – | – | – |
| CC(=O)c1ccc(NC(=O)C(C)Sc2nc3ccccc3c(=O)n2C2CCCC2)cc1 (stereo not drawn) [EF-2] | – | – | 0 | 2.15 and 4.6 and 0.468 and 1.148 | 3.45 and 2.29 and 0.641 and 1.187 | 4.04 and 4.36 and 1.213 and -1.342 | 1.37 and 3.12 and 2.49 and 0.6545 | 2.5 and 5.02 and 2.238 and 2.209 | 4.33 and 4.8 and 3.759 and 4.682 | 3.95 and 4.91 and 4.578 and 5.322 | 8.72 and 7.12 and 6.167 and 6.988 | 9.4 and 10.69 and 8.539 and 7.868 | 12.78 and 12.75 and 7.517 and 9.504 | 3.3 | – | – | – | – |
| CC(Sc1nc2ccccc2c(=O)n1C1CCCC1)C(=O)N(C)c1ccccc1 (stereo not drawn) [EF-3] | – | – | 0 | -1.21 and 2.4 and -0.0725 | -1.21 and 2.26 and 0.6885 | -1.52 and 3.09 and -0.0015 | -1.8 and 4 and -1.488 | -0.91 and 4.12 and -1.3115 | -2.34 and 4.47 and -0.737 | -2.82 and 3.65 and 0.377 | -2.1 and 3.98 and 3.507 | -0.15 and 7.88 and 11.189 | 10.32 and 12.81 and 17.0765 | 15.9 | – | – | – | – |
| CC(C)n1c(SC(C(=O)NC2CC2)c2ccccc2)nc2sc3c(c2c1=O)CCC3 (stereo not drawn) [EF-4] | – | – | 0 | -0.82 and -1.6 and 0.98 and -1.282 and -1.385 | -1.06 and 0.03 and 3.38 and -1.705 and 1.217 | 0.06 and -1.83 and 3.79 and -0.533 and -0.2429 | 0.37 and -1.62 and 3.34 and -1.138 and -0.1012 | -0.43 and -1.64 and 5.89 and 0.03433 and 4.575 | 0.21 and 0.63 and 6.37 and 2.286 and 6.859 | 2.3 and -0.27 and 8.83 and 5.465 and 8.345 | 3.99 and 2.72 and 14.5 and 12.0003 and 11.0326 | 10.7 (2×) and 28.43 and 14.396 and 16.9022 | 14.22 and 10.37 and 32.96 and 14.248 and 12.7415 | 7.9 | – | – | – | – |
| O=C1NCCCCC1Sc1nc2sc3c(c2c(=O)n1C1CCCC1)CCCC3 (stereo not drawn) [EF-5] | – | – | 0 | 0.55 and -5.82 and -1.2625 and -2.273 | -0.81 and -3.79 and -1.2155 and 0.9982 | 2.18 and -1.68 and -1.408 and 0.7189 | 0.6 and -0.22 and -2.045 and 0.5619 | 1.62 and -1.86 and -1.923 and 1.909 | 0.85 and -0.68 and -0.804 and 3.362 | 1.61 and 5.16 and 4.378 and 4.178 | 4.54 and 3.781 and 4.611 | 16.34 and 17.63 and 4.256 and 4.3885 | 15.88 and 18.62 and 11.2465 and 8.67 | 6.8 | induced ERBB4 dimerization in a concentration-dependent manner | – | – | – |
| Cc1sc2nc(SC(C)C(=O)Nc3sccc3C(N)=O)n(CC(C)C)c(=O)c2c1C (stereo not drawn) [EF-6] | – | – | 0 | -10.54 and 0.126 and -1.899 | -0.74 and -11.14 and 0.573 and -2.081 | -11.05 and 1.316 and 0.08162 | -1.14 and -8.91 and 2.656 and 0.4928 | -7.05 and 2.748 and 1.042 | -1.29 and -3.55 and 2.61 and 5.158 | 3.35 and 5.191 and 6.31 | 7.22 and 8.65 and 7.634 and 6.661 | 15.88 and 10.304 and 5.283 | 10.39 and 15.72 and 13.149 and 5.2549 | 7.4 | induced ERBB4 dimerization in a concentration-dependent manner | – | – | – |
| CC(Sc1nc2ccccc2c(=O)n1C1CCCC1)c1nc2ccccc2n1C(F)F (stereo not drawn) [EF-7] | – | – | 0 | 1.834 and 3.035 and 0.03 and -1.937 | -0.545 and 2.505 and -0.7885 and 2.028 | 4.185 and 4.81 and -0.3825 and 0.1978 | -2.369 and -1.66 and -2.1805 and 0.9417 | -1.082 and -1.615 and -1.204 and 2.348 | -0.26 and -0.926 and -0.8585 and 4.47 | 0.729 and 3.237 and 0.665 and 4.903 | 3.996 and 7.56 and 2.421 and 5.8011 | 6.204 and 12.704 and 5.9735 and 4.731 | 9.166 and 15.395 and 6.6065 and 4.169 | 4.4 | induced ERBB4 dimerization in a concentration-dependent manner | – | – | – |
| Cc1sc2nc(SCC(=O)NC(C)(C#N)C(C)C)n(C3CCCC3)c(=O)c2c1C (stereo not drawn) [EF-8] | – | – | 0 | -2.398 and 2.948 and -2.16 and -2.631 | -3.058 and 0.945 and -1.747 and 1.488 | -2.005 and -2.555 and -0.053 and 1.532 | -2.09 and -2.305 and 2.13 and 0.7408 | -1.274 and -2.984 and 1.804 and 0.1664 | -1.378 and -1.267 and 1.368 and 2.734 | -1.56 and -0.487 and 3.629 and 7.521 | -0.129 and 2.382 and 5.053 and 7.016 | 5.735 and 10.567 and 10.209 and 8.435 | 13.012 and 24.912 and 17.432 | 14 | induced ERBB4 dimerization in a concentration-dependent manner | – | – | – |
| O=c1cc(N2CCOCC2)oc2c(-c3ccccc3)cccc12 [LY294002, reference compound] | – | – | – | – | – | – | – | – | – | – | – | – | – | – | – | 32.812 and 23.1247 and 24.542 and 32.4283 | 4.366 and 3.706 and 3.828 and 4.745 | blocked the pro-survival effect of EF-1 |
